The numbers were not newly measured in article PMC11071479 (bioRxiv, 2024), which cites them from elsewhere.

In this data set the target is T1, MCT4 (Homo sapiens, UniProt O15427).
T1 sequence (O15427 2-465): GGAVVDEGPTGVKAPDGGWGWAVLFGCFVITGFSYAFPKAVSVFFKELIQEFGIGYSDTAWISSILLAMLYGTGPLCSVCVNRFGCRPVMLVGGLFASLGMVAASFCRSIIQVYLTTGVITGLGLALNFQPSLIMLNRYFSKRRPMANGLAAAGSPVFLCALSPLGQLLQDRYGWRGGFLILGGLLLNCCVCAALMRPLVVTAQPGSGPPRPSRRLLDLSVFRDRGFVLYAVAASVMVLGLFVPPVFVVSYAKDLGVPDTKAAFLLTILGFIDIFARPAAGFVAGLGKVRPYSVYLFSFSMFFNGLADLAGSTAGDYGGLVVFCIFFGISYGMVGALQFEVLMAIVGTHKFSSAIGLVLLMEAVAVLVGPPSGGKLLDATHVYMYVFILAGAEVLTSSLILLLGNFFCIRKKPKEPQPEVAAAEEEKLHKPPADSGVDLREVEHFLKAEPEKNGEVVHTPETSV
Kind of data set: MCT4 inhibition IC50 stated without citation. The data set is classed as cell-based.

On to VB253, for which the IC50 is approximately 2 nM.
